Measured values as given in the supplement of paper PMC5908809.

Assays:
[1] = system: normal NK cells expanded with K562-aAPC; assay: percent inhibition of viability; higher = more inhibition; settings: 72 h, IL-2 2.5 ng/mL
Method: (§1)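 Drug sensitivity and resistance testing on K562-aAPC-expanded normal NK cells: 5 concentrations (10-fold steps over a 10,000-fold range), 72 h at 37 °C, viability by CellTiter-Glo normalised to DMSO and benzethonium chloride controls; DSS from the fitted curve.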

[2] = system: DERL-7 (IL-2 2.5 ng/mL); assay: as above; settings: 72 h
[3] = system: IMC-1 (IL-2 20 ng/mL); assay: as above; settings: 72 h
[4] = system: KAI3 (IL-2 2.5 ng/mL); assay: as above; settings: 72 h
[5] = system: KHYG-1 (IL-2 2.5 ng/mL); assay: as above; settings: 72 h
[6] = system: NK-92 (IL-2 2.5 ng/mL); assay: as above; settings: 72 h
[7] = system: NK-YS (IL-2 2.5 ng/mL); assay: as above; settings: 72 h
[8] = system: NKL (IL-2 2.5 ng/mL); assay: as above; settings: 72 h
[9] = system: SNK-6 (IL-2 2.5 ng/mL); assay: as above; settings: 72 h
[10] = system: YT (IL-2 2.5 ng/mL); assay: as above; settings: 72 h
[11] = system: normal primary NK cells, pool 1 (3 donors) (IL-2 2.5 ng/mL); assay: as above; settings: 72 h
[12] = system: normal primary NK cells, pool 1 (3 donors), resting (IL-2 0 ng/mL); assay: as above; settings: 72 h
[13] = system: normal primary NK cells, pool 2 (3 donors) (IL-2 2.5 ng/mL); assay: as above; settings: 72 h
[14] = system: normal primary NK cells, pool 3 (3 donors) (IL-2 2.5 ng/mL); assay: as above; settings: 72 h
[15] = system: normal NK cells expanded with K562-aAPC; assay: drug sensitivity score (DSS) (DSS units); higher = more sensitive; extreme values may be limits of the assay; settings: 72 h; IL-2 2.5 ng/mL
Method: as §1

[16] = system: DERL-7 (IL-2 2.5 ng/mL); assay: as above; settings: 72 h
[17] = system: IMC-1 (IL-2 20 ng/mL); assay: as above; settings: 72 h
[18] = system: KAI3 (IL-2 2.5 ng/mL); assay: as above; settings: 72 h
[19] = system: KHYG-1 (IL-2 2.5 ng/mL); assay: as above; settings: 72 h
[20] = system: NK-92 (IL-2 2.5 ng/mL); assay: as above; settings: 72 h
[21] = system: NK-YS (IL-2 2.5 ng/mL); assay: as above; settings: 72 h
[22] = system: NKL (IL-2 2.5 ng/mL); assay: as above; settings: 72 h
[23] = system: SNK-6 (IL-2 2.5 ng/mL); assay: as above; settings: 72 h
[24] = system: YT (IL-2 2.5 ng/mL); assay: as above; settings: 72 h
[25] = system: normal primary NK cells, pool 1 (3 donors) (IL-2 2.5 ng/mL); assay: as above; settings: 72 h
[26] = system: normal primary NK cells, pool 1 (3 donors), resting (IL-2 0 ng/mL); assay: as above; settings: 72 h
[27] = system: normal primary NK cells, pool 2 (3 donors) (IL-2 2.5 ng/mL); assay: as above; settings: 72 h
[28] = system: normal primary NK cells, pool 3 (3 donors) (IL-2 2.5 ng/mL); assay: as above; settings: 72 h

SMILES: COc1cc2nccc(Oc3ccc(NC(=O)C4(C(=O)Nc5ccc(F)cc5)CC4)cc3)c2cc1OC [Cabozantinib] (max concentration tested 1000 nM)
- percent inhibition of viability ([1]; 0.1 nM): -0.51%
- percent inhibition of viability ([1]; 1 nM): 2.22%
- percent inhibition of viability ([1]; 10 nM): 1.52%
- percent inhibition of viability ([1]; 100 nM): 13.2%
- percent inhibition of viability ([1]; 1000 nM): 5.74%
- percent inhibition of viability ([2]; 0.1 nM): 4.09%
- percent inhibition of viability ([2]; 1 nM): 2.17%
- percent inhibition of viability ([2]; 10 nM): 6.31%
- percent inhibition of viability ([2]; 100 nM): -1.21%
- percent inhibition of viability ([2]; 1000 nM): 8.67%
- percent inhibition of viability ([3]; 0.1 nM): -7.19%
- percent inhibition of viability ([3]; 1 nM): 0.46%
- percent inhibition of viability ([3]; 10 nM): 1.98%
- percent inhibition of viability ([3]; 100 nM): 6.03%
- percent inhibition of viability ([3]; 1000 nM): 8.61%
- percent inhibition of viability ([4]; 0.1 nM): -1.21%
- percent inhibition of viability ([4]; 1 nM): 2.25%
- percent inhibition of viability ([4]; 10 nM): 0.33%
- percent inhibition of viability ([4]; 100 nM): -5.2%
- percent inhibition of viability ([4]; 1000 nM): 0.09%
- percent inhibition of viability ([5]; 0.1 nM): -1.92%
- percent inhibition of viability ([5]; 1 nM): 1.46%
- percent inhibition of viability ([5]; 10 nM): 4.91%
- percent inhibition of viability ([5]; 100 nM): 3.42%
- percent inhibition of viability ([5]; 1000 nM): 7.82%
- percent inhibition of viability ([6]; 0.1 nM): 1.61%
- percent inhibition of viability ([6]; 1 nM): 12.2%
- percent inhibition of viability ([6]; 10 nM): 13.4%
- percent inhibition of viability ([6]; 100 nM): 2.98%
- percent inhibition of viability ([6]; 1000 nM): 25.1%
- percent inhibition of viability ([7]; 0.1 nM): -3.98%
- percent inhibition of viability ([7]; 1 nM): -1.22%
- percent inhibition of viability ([7]; 10 nM): 1.67%
- percent inhibition of viability ([7]; 100 nM): -2.46%
- percent inhibition of viability ([7]; 1000 nM): 0.65%
- percent inhibition of viability ([8]; 0.1 nM): -19%
- percent inhibition of viability ([8]; 1 nM): -5.16%
- percent inhibition of viability ([8]; 10 nM): -4.38%
- percent inhibition of viability ([8]; 100 nM): -6.13%
- percent inhibition of viability ([8]; 1000 nM): 19.2%
- percent inhibition of viability ([9]; 0.1 nM): 7.18%
- percent inhibition of viability ([9]; 1 nM): 7.13%
- percent inhibition of viability ([9]; 10 nM): 10.3%
- percent inhibition of viability ([9]; 100 nM): -6.13%
- percent inhibition of viability ([9]; 1000 nM): -0.11%
- percent inhibition of viability ([10]; 0.1 nM): -1.79%
- percent inhibition of viability ([10]; 1 nM): -0.81%
- percent inhibition of viability ([10]; 10 nM): 0.31%
- percent inhibition of viability ([10]; 100 nM): 0.38%
- percent inhibition of viability ([10]; 1000 nM): 11.3%
- percent inhibition of viability ([11]; 0.1 nM): -2.72%
- percent inhibition of viability ([11]; 1 nM): -8.6%
- percent inhibition of viability ([11]; 10 nM): -1.12%
- percent inhibition of viability ([11]; 100 nM): -10.1%
- percent inhibition of viability ([11]; 1000 nM): -9.52%
- percent inhibition of viability ([12]; 0.1 nM): 8.87%
- percent inhibition of viability ([12]; 1 nM): -5.07%
- percent inhibition of viability ([12]; 10 nM): -5.31%
- percent inhibition of viability ([12]; 100 nM): -16.9%
- percent inhibition of viability ([12]; 1000 nM): 11.5%
- percent inhibition of viability ([13]; 0.1 nM): -8.26%
- percent inhibition of viability ([13]; 1 nM): 3.55%
- percent inhibition of viability ([13]; 10 nM): 9.65%
- percent inhibition of viability ([13]; 100 nM): -7.89%
- percent inhibition of viability ([13]; 1000 nM): 11.1%
- percent inhibition of viability ([14]; 0.1 nM): -18.8%
- percent inhibition of viability ([14]; 1 nM): -3.79%
- percent inhibition of viability ([14]; 10 nM): 10.5%
- percent inhibition of viability ([14]; 100 nM): -12.7%
- percent inhibition of viability ([14]; 1000 nM): -3.82%
- drug sensitivity score [15]: 0
- drug sensitivity score [16]: 0
- drug sensitivity score [17]: 0
- drug sensitivity score [18]: 0
- drug sensitivity score [19]: 0
- drug sensitivity score [20]: 1.73
- drug sensitivity score [21]: 0
- drug sensitivity score [22]: 0.33
- drug sensitivity score [23]: 0
- drug sensitivity score [24]: 0.02
- drug sensitivity score [25]: 0
- drug sensitivity score [26]: 0.01
- drug sensitivity score [27]: 0
- drug sensitivity score [28]: 0

SMILES: CC(C)CC(=O)Nc1n[nH]c2c1CN(C(=O)C1CCN(C)CC1)C2(C)C (max concentration tested 10000 nM)
- percent inhibition of viability ([1]; 1 nM): 1.26%
- percent inhibition of viability ([1]; 10 nM): -0.23%
- percent inhibition of viability ([1]; 100 nM): 9.16%
- percent inhibition of viability ([1]; 1000 nM): 24.6%
- percent inhibition of viability ([1]; 10000 nM): 84.3%
- percent inhibition of viability ([2]; 1 nM): -3.18%
- percent inhibition of viability ([2]; 10 nM): -3.13%
- percent inhibition of viability ([2]; 100 nM): 19.6%
- percent inhibition of viability ([2]; 1000 nM): 55.2%
- percent inhibition of viability ([2]; 10000 nM): 100%
- percent inhibition of viability ([3]; 1 nM): 3.15%
- percent inhibition of viability ([3]; 10 nM): 9.36%
- percent inhibition of viability ([3]; 100 nM): 18%
- percent inhibition of viability ([3]; 1000 nM): 101%
- percent inhibition of viability ([3]; 10000 nM): 101%
- percent inhibition of viability ([4]; 1 nM): 0.22%
- percent inhibition of viability ([4]; 10 nM): 5.67%
- percent inhibition of viability ([4]; 100 nM): 10.2%
- percent inhibition of viability ([4]; 1000 nM): 34.4%
- percent inhibition of viability ([4]; 10000 nM): 97.8%
- percent inhibition of viability ([5]; 1 nM): 3.79%
- percent inhibition of viability ([5]; 10 nM): 5.48%
- percent inhibition of viability ([5]; 100 nM): 13.2%
- percent inhibition of viability ([5]; 1000 nM): 79.1%
- percent inhibition of viability ([5]; 10000 nM): 104%
- percent inhibition of viability ([6]; 1 nM): -3.46%
- percent inhibition of viability ([6]; 10 nM): 8.8%
- percent inhibition of viability ([6]; 100 nM): 18%
- percent inhibition of viability ([6]; 1000 nM): 15.4%
- percent inhibition of viability ([6]; 10000 nM): 52.1%
- percent inhibition of viability ([7]; 1 nM): -0.22%
- percent inhibition of viability ([7]; 10 nM): 5.26%
- percent inhibition of viability ([7]; 100 nM): 25.9%
- percent inhibition of viability ([7]; 1000 nM): 59.1%
- percent inhibition of viability ([7]; 10000 nM): 103%
- percent inhibition of viability ([8]; 1 nM): 9.47%
- percent inhibition of viability ([8]; 10 nM): 12.1%
- percent inhibition of viability ([8]; 100 nM): 8.64%
- percent inhibition of viability ([8]; 1000 nM): 26%
- percent inhibition of viability ([8]; 10000 nM): 105%
- percent inhibition of viability ([9]; 1 nM): 1.24%
- percent inhibition of viability ([9]; 10 nM): 13.9%
- percent inhibition of viability ([9]; 100 nM): 17.6%
- percent inhibition of viability ([9]; 1000 nM): 21.7%
- percent inhibition of viability ([9]; 10000 nM): 77.7%
- percent inhibition of viability ([10]; 1 nM): 4.62%
- percent inhibition of viability ([10]; 10 nM): 5.8%
- percent inhibition of viability ([10]; 100 nM): 7.48%
- percent inhibition of viability ([10]; 1000 nM): 37.5%
- percent inhibition of viability ([10]; 10000 nM): 104%
- percent inhibition of viability ([11]; 1 nM): 5.81%
- percent inhibition of viability ([11]; 10 nM): -11.3%
- percent inhibition of viability ([11]; 100 nM): 1.49%
- percent inhibition of viability ([11]; 1000 nM): 2.13%
- percent inhibition of viability ([11]; 10000 nM): 93.6%
- percent inhibition of viability ([12]; 1 nM): -13.4%
- percent inhibition of viability ([12]; 10 nM): -45.2%
- percent inhibition of viability ([12]; 100 nM): -20.7%
- percent inhibition of viability ([12]; 1000 nM): -66.9%
- percent inhibition of viability ([12]; 10000 nM): 85%
- percent inhibition of viability ([13]; 1 nM): -7.33%
- percent inhibition of viability ([13]; 10 nM): 3.3%
- percent inhibition of viability ([13]; 100 nM): 10.1%
- percent inhibition of viability ([13]; 1000 nM): 14.3%
- percent inhibition of viability ([13]; 10000 nM): 85.4%
- percent inhibition of viability ([14]; 1 nM): -6.64%
- percent inhibition of viability ([14]; 10 nM): -10.6%
- percent inhibition of viability ([14]; 100 nM): 9.27%
- percent inhibition of viability ([14]; 1000 nM): 6.31%
- percent inhibition of viability ([14]; 10000 nM): 54.5%
- drug sensitivity score [15]: 7.91
- drug sensitivity score [16]: 13.1
- drug sensitivity score [17]: 21
- drug sensitivity score [18]: 9.47
- drug sensitivity score [19]: 16.4
- drug sensitivity score [20]: 5.51
- drug sensitivity score [21]: 14.8
- drug sensitivity score [22]: 9.5
- drug sensitivity score [23]: 6.8
- drug sensitivity score [24]: 10.6
- drug sensitivity score [25]: 5.49
- drug sensitivity score [26]: 3.02
- drug sensitivity score [27]: 7.11
- drug sensitivity score [28]: 3.98
